# Reference: ChEMBL document CHEMBL4840359, “N-Terminus to Arginine Side-Chain Cyclization of Linear Peptidic Neuropeptide Y Y4 Receptor Ligands Results in Picomolar Binding Constants” (J Med Chem, 2021)
# Legend:
# [1] = biological target: T1, Neuropeptide Y receptor type 4 (Homo sapiens, UniProt P50391); assay: Displacement of [3H]UR-KK200 from human neuropeptide Y Y4 receptor expressed in CHO-mtAEQ cells co-expressing Gqi5 measured after 90 mins by scintillation counting analysis; format: cell-based
# T1 sequence (P50391 whole entry): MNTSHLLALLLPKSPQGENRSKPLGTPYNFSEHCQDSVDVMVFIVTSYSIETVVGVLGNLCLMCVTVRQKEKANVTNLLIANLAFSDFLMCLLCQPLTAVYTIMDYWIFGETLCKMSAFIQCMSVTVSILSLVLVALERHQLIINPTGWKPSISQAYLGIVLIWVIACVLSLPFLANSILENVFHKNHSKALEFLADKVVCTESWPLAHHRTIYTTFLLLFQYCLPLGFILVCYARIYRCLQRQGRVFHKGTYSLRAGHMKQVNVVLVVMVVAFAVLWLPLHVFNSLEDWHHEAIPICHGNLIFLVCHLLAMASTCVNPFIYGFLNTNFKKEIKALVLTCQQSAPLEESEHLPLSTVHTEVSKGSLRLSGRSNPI
# [2] = biological target: T1, Neuropeptide Y receptor type 4; assay: Displacement of [3H]UR-KK200 from human neuropeptide Y Y4 receptor expressed in CHO-mtAEQ cells co-expressing Gqi5 assessed as fold change in affinity measured after 90 mins by scintillation counting analysis relative to Ac-Arg-Tyr-Arg-Leu-Arg-Tyr-NH2; format: cell-based; conditions: filed as agonist
# [3] = biological target: T2, Neuropeptide Y receptor type 1 (Homo sapiens, UniProt P25929); assay: Displacement of [3H]UR-MK299 from human neuropeptide Y Y1 receptor in human SK-N-MC cells measured after 90 mins by scintillation counting analysis; format: cell-based
# T2 sequence (P25929 whole entry): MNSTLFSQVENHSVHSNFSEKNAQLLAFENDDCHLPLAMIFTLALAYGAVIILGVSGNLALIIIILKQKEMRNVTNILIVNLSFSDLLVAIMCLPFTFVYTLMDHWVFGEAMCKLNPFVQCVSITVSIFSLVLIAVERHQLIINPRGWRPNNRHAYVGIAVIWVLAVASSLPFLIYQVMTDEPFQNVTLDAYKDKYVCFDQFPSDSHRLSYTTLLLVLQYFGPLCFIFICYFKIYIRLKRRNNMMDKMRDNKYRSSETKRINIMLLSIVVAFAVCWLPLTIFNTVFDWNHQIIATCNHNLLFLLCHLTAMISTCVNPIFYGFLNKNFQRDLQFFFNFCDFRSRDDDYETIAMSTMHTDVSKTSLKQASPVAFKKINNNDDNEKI
# [4] = biological target: T3, Neuropeptide Y receptor type 2 (Homo sapiens, UniProt P49146); assay: Displacement of [3H]UR-MK299 from human neuropeptide Y Y2 receptor expressed in CHO cells measured after 90 mins by scintillation counting analysis; format: cell-based
# T3 sequence (P49146 whole entry): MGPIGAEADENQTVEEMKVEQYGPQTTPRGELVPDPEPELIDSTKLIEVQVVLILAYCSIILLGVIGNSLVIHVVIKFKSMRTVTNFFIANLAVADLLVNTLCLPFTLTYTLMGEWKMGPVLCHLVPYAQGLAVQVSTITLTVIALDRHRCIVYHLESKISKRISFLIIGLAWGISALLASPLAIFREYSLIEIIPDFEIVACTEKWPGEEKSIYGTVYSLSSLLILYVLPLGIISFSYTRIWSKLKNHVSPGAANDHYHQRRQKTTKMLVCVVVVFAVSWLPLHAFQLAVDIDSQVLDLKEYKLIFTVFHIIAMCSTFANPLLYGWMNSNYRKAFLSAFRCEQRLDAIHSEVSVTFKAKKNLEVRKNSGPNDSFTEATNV
# [5] = biological target: T4, Neuropeptide Y receptor type 5 (Homo sapiens, UniProt Q15761); assay: Displacement of [3H]propionyl-pNPY from human neuropeptide Y Y5 receptor in human HEC-1B cells measured after 90 mins by scintillation counting analysis; format: cell-based, HEC-1B cell line
# T4 sequence (Q15761 whole entry): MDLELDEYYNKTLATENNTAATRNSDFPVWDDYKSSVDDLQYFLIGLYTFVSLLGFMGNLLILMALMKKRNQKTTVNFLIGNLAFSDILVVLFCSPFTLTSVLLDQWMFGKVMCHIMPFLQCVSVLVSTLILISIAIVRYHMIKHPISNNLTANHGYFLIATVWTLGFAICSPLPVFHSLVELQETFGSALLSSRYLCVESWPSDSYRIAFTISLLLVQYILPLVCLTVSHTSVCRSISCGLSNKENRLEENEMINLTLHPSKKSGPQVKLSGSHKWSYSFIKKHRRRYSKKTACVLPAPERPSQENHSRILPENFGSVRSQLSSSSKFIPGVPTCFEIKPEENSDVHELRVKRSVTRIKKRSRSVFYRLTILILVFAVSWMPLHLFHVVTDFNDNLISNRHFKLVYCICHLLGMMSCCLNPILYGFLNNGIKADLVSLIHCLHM
# Homo sapiens [6] = species: Homo sapiens; assay: (§1) Selectivity ratio, Ki for displacement of [3H]UR-MK299 from human neuropeptide Y Y1 receptor in human SK-N-MC cells measured after 90 mins by scintillation counting analysis to Ki for displacement of [3H]UR-KK200 from human neuropeptide Y Y4 receptor expressed in CHO-mtAEQ cells co-expressing Gqi5 measured after 90 mins by scintillation counting analysis; format: cell-based
# Homo sapiens [7] = species: Homo sapiens; assay: Selectivity ratio, Ki for displacement of [3H]UR-MK299 from human neuropeptide Y Y2 receptor expressed in CHO cells measured after 90 mins by scintillation counting analysis to Ki for displacement of [3H]UR-KK200 from human neuropeptide Y Y4 receptor expressed in CHO-mtAEQ cells co-expressing Gqi5 measured after 90 mins by scintillation counting analysis; format: cell-based
# Homo sapiens [8] = species: Homo sapiens; assay: as §1, with “[3H]propionyl-pNPY” for “[3H]UR-MK299”, “Y5” for “Y1”, “HEC-1B” for “SK-N-MC”; format: cell-based
# [9] = biological target: T1, Neuropeptide Y receptor type 4; assay: Agonist activity at human neuropeptide Y Y4 receptor expressed in HEK293T-ARRB1 cells assessed as stimulation of beta-arrestin 1 recruitment by multimode plate reader; format: functional, cell-based; conditions: read-out: EC50
# [10] = biological target: T1, Neuropeptide Y receptor type 4; assay: Intrinsic activity at human neuropeptide Y Y4 receptor expressed in HEK293T-ARRB1 cells assessed as stimulation of beta-arrestin 1 recruitment by multimode plate reader relative to hPP; format: functional, cell-based
# [11] = biological target: T1, Neuropeptide Y receptor type 4; assay: Agonist activity at human neuropeptide Y Y4 receptor expressed in HEK293T-ARRB2 cells assessed as stimulation of beta-arrestin 2 recruitment by multimode plate reader; format: functional, cell-based
# [12] = biological target: T1, Neuropeptide Y receptor type 4; assay: Intrinsic activity at human neuropeptide Y Y4 receptor expressed in HEK293T-ARRB2 cells assessed as stimulation of beta-arrestin 2 recruitment by multimode plate reader relative to hPP; format: functional, cell-based
# [13] = biological target: T1, Neuropeptide Y receptor type 4; assay: Agonist activity at human neuropeptide Y Y4 receptor expressed in CHO-mtAEQ cells co-expressing Gqi5 by calcium aequorin assay; format: functional, cell-based
# [14] = biological target: T1, Neuropeptide Y receptor type 4; assay: Intrinsic activity at human neuropeptide Y Y4 receptor expressed in CHO-mtAEQ cells co-expressing Gqi5 by calcium aequorin assay; format: functional, cell-based
# [15] = biological target: T1, Neuropeptide Y receptor type 4; assay: Intrinsic activity at human neuropeptide Y Y4 receptor expressed in HEK293T cells co-expressing CRE-controlled gene reporter firefly luciferase assessed as relative luminescence measured after 15 mins relative to hPP; format: functional, cell-based
# [16] = Stability of the compound in pH 7.4 PBS buffer measured up to 48 hrs by reversed-phase HPLC analysis; format: physicochemical; conditions: pH 7.4, 48 h
# [17] = Stability in human plasma assessed as intact peptide measured after 30 mins at 37 degC by RP-HPLC analysis; format: ADME, cell-free; conditions: read-out: Stability
# [18] = Stability in human plasma assessed as intact peptide measured after 1 hr at 37 degC by RP-HPLC analysis; format: ADME, cell-free; conditions: read-out: Stability
# [19] = Stability in human plasma assessed as intact peptide measured after 2 hr at 37 degC by RP-HPLC analysis; format: ADME, cell-free; conditions: read-out: Stability
# [20] = Stability in human plasma assessed as intact peptide measured after 6 hr at 37 degC by RP-HPLC analysis; format: ADME, cell-free; conditions: read-out: Stability
# [21] = Stability in human plasma assessed as half life at 37 degC by RP-HPLC analysis; format: ADME, cell-free
# [22] = Stability in human plasma assessed as intact peptide in presence of rami-pril measured at 50 uM after 24 hrs at 37 degC by LC-HRMS analysis; format: ADME, cell-free
# [23] = biological target: T1, Neuropeptide Y receptor type 4; assay: Agonist activity at human neuropeptide Y Y4 receptor expressed in HEK293T cells co-expressing CRE-controlled gene reporter firefly luciferase assessed as relative luminescence measured after 15 mins; format: functional, cell-based
# [24] = Stability in human plasma assessed as intact peptide measured after 24 hrs at 37 degC by RP-HPLC analysis; format: ADME, cell-free; conditions: read-out: Stability
# [25] = Inhibition of ACE (unknown origin); set-up: species or system Homo sapiens
Ki ([1]; read-out: Ki),fold change (FC) [2],Ki ([3]; read-out: pKi (converted)),Ki ([4]; read-out: Ki),Ki ([4]; read-out: pKi (converted)),Ki ([5]; read-out: pKi (converted)),EC50 [9],Intrinsic activity [10],EC50 [11],Intrinsic activity [12],EC50 [13],Intrinsic activity [14],Intrinsic activity [15],remaining at 0.5 h [17],remaining at 2 h [19],remaining at 6 h [20],half-life [21],SMILES,Selectivity ratio (Homo sapiens [6]),Selectivity ratio (Homo sapiens [7]),Selectivity ratio (Homo sapiens [8]),also measured
0.048 nM,71,> 3.16 µM,> 10 µM,> 10 µM,> 1 µM,3.6 nM,68%,1.58 nM,73%,2.69 nM,82%,89%,> 99%,52%,3%,114 min,CC(C)C[C@H](NC(=O)[C@@H]1CCCNC(=N)NC(=O)NCCCCNC(=O)CCC(=O)N[C@@H](CCCNC(=N)N)C(=O)N[C@@H](Cc2ccc(O)cc2)C(=O)N1)C(=O)N[C@@H](CCCNC(=N)N)C(=O)N[C@@H](Cc1ccc(O)cc1)C(N)=O,> 60000,> 200,> 60000,Ki ([1]; read-out: pKi (converted)): 0.0437 nM; Ki ([3]; read-out: Ki): > 3 µM; Ki ([5]; read-out: Ki): > 3 µM; Stability [16]: Stable; remaining at 1 h [18]: 85%; Stability [22]: Stable
13 nM,2.6,> 10 µM,> 10 µM,> 10 µM,> 10 µM,160 nM,75%,141 nM,83%,204 nM,70%,88%,> 99%,91%,49%,354 min,CC(C)C[C@H](NC(=O)[C@H](CCCNC(=N)NC(=O)NCCCCN)NC(=O)[C@H](Cc1ccc(O)cc1)NC(=O)[C@H](CCCNC(=N)N)NC(=O)CCC(=O)O)C(=O)N[C@@H](CCCNC(=N)N)C(=O)N[C@@H](Cc1ccc(O)cc1)C(N)=O,> 7600,> 7600,> 7600,"Ki ([1]; read-out: pKi (converted)): 1.26 nM; Ki ([3]; sk-n-mc, read-out: Ki): > 10 µM; EC50 [23]: 17 nM; remaining at 24 h [24]: 3%; Stability [22]: Stable"
–,–,–,–,–,–,–,–,–,–,–,–,–,–,–,–,–,CCOC(=O)[C@H](CCc1ccccc1)N[C@@H](C)C(=O)N1[C@H](C(=O)O)C[C@@H]2CCC[C@@H]21,–,–,–,pIC50 [25]: 7.6
0.033 nM,103,> 10 µM,> 10 µM,> 10 µM,> 1 µM,1 nM,98%,1.66 nM,80%,1 nM,84%,95%,94%,57%,19%,156 min,CC(C)C[C@H](NC(=O)[C@@H]1CCCNC(=N)NC(=O)NCCCCNC(=O)CCC(=O)N[C@@H](CCCNC(=N)N)C(=O)N[C@@H](Cc2c[nH]c3ccccc23)C(=O)N1)C(=O)N[C@@H](CCCNC(=N)N)C(=O)N[C@@H](Cc1ccc(O)cc1)C(N)=O,> 300000,> 300,> 90000,"Ki ([3]; sk-n-mc, read-out: Ki): > 10 µM; Ki ([5]; read-out: Ki): > 3 µM; EC50 [23]: 1.41 nM; Stability [16]: Stable; remaining at 1 h [18]: 87%; Stability [22]: Stable"
2.1 nM,1.6,> 10 µM,> 3 µM,> 3.16 µM,> 10 µM,120 nM,67%,162 nM,76%,105 nM,67%,95%,94%,87%,67%,474 min,CC(C)C[C@H](NC(=O)[C@H](CCCNC(=N)NC(=O)NCCCCN)NC(=O)[C@H](Cc1c[nH]c2ccccc12)NC(=O)[C@H](CCCNC(=N)N)NC(=O)CCC(=O)O)C(=O)N[C@@H](CCCNC(=N)N)C(=O)N[C@@H](Cc1ccc(O)cc1)C(N)=O,> 4700,> 1400,> 4700,"Ki ([1]; read-out: pKi (converted)): 1.95 nM; Ki ([3]; sk-n-mc, read-out: Ki): > 10 µM; EC50 [23]: 12 nM; remaining at 24 h [24]: 3%; Stability [22]: Stable"
